{
  "source": "paper PMC10820135",
  "about": "“Pharmacokinetic, Tissue Distribution, Metabolite, and Toxicity Evaluation of the Matrine Derivative, (6aS, 10S, 11aR, 11bR, 11cS)-10-Methylaminododecahydro-3a, 7a-Diaza-benzo (de) Anthracene-8-thione” (Molecules, 2024)",
  "key": {"[1]": {"test": "Metabolite profiling of MASM in rats by UHPLC-QQQ-MS/MS", "type": "in vivo, Sprague-Dawley rats", "conditions": "rat", "description": "The identification of the in vivo metabolites of MASM was conducted using UHPLC-QQQ-MS/MS combined with standard references and deuterium-labeled MASM. The findings are presented in Table 2, while the proposed primary metabolic pathway of MASM in rats is depicted in Figure 4. To provide a comprehensive understanding of the metabolite identification process, three representative metabolites of MASM are presented, with their identification relying on primary and secondary mass spectrometry data, standard references, and deuterium-labeled MASM. The remaining metabolites are detailed in Supplementary File S4. For instance, the identification of the metabolite, M1, as a demethylation product of MASM was accomplished through the utilization of MS, MS/MS data, and the standard reference. […] Moreover, the identification of M1 as the demethylation metabolite of MASM was accomplished using the standard reference synthesized in our laboratory. […] Secondly, the metabolite, M2, of MASM was identified as the dehydrogenation product of MASM through the utilization of MS and MS/MS data. […] Consequently, M2 was identified as a dehydrogenation metabolite of M1. Thirdly, through the utilization of MS, MS/MS data, and deuterium-labeled MASM, the metabolite, M8, of MASM was determined to be a dehydrogenation product of MASM. […] The major MS/MS fragment ions of M8 were found at m/z 111.92, 178.77, 150.16, and 135.85, which aligned with the characteristic cleavage pattern of matrine. Additionally, our lab synthesized deuterium-labeled MASM to further support our proposed structure. […] Consequently, M8 was identified as a dehydrogenation metabolite of MASM. The EIC, MS/MS spectrum of M8 and deuterium-labeled MASM are all depicted in Figure 5C.\nUHPLC analysis was performed using a Thermo Accela AS system, employing an ACQUITY UPLC®BEH C18 (Waters Corporation, Wexfords, Ireland) (1.7 µm, 2.1 × 100 mm) column and a binary solvent system consisting of water containing 0.1% formic acid as mobile phase A and acetonitrile as mobile phase B. For pharmacokinetic evaluation, the gradient elution was set as follows: 97% A from 0 to 2 min, 97–70% A from 2 to 3 min, 70–20% A from 3 to 3.5 min, 20% A from 3.5 to 3.6 min, 20–97% A from 3.6 to 3.7 min, and 97% A from 3.7 to 5 min. For the metabolic test, the gradient elution in full scan mode was set as follows: 97% A from 0 to 2 min, 97–70% A from 2 to 4 min, 70–20% A from 4 to 6 min, 20% A from 6 to 7 min, 20–97% A from 7 to 8 min, and 97% A from 8 to 10 min. The flow rate was 0.2 mL/min, with a temperature of 40 °C maintained and an injection volume of 5 μL. The QQQ-MS/MS analysis was conducted using a Thermo TSQ QUANTUM ACCESS MAX system equipped with an electrospray ionization (ESI) source. The spray voltages were set at 4.0 kV and 2.5 kV for positive and negative ion modes, respectively; capillary and vaporizer temperatures were 320 °C and 350 °C, respectively; sheath and aux gas pressures were 35 and 10 psi, respectively.\nSeventy Sprague-Dawley rats were fasted overnight before dosing, with free access to water. Subsequently, the rats were randomly and equally divided into 7 groups: the control groups received 3 different routes of administration: intravenous, intraperitoneal, and intragastric (NS, saline 1 mL/100 g); MASM intraperitoneal group (A, i.p. 80 mg/kg), MASM intragastrical group (B, i.g. 60 mg/kg), MASM intravenous group (C, i.v. 15 mg/kg), and DMASM intragastrical group (D, i.g. 60 mg/kg). It is important to note that the recommended clinical dose of matrine injection is 0.15 g, which is equivalent to a dosage of 15 mg/kg in rats. MASM was administered via tail vein injection at a dosage of 1 mL/100 g for intravenous dosing, while for intraperitoneal dosing, MASM was injected at the lower-right side of the abdomen of rats. […]"}, "[2]": {"test": "Stability of MASM in plasma QC samples", "type": "in vitro ADME", "conditions": "QC samples: autosampler 4℃ 8 h, -80℃ 30 days, three freeze-thaw cycles", "description": "determined by calculating the RSD of 6 samples analyzed on the same day, while the inter-day precision was determined by calculating the RSD of 3 analytical batches analyzed over 3 consecutive days.\n1.4 Extraction recovery and matrix effect\nThe extraction recovery was in assessed by comparing the peak area of the blank […]\ni n E q . […]\nExtraction recovery=Ap/Ax×100% Eq. (1)\nMatrix effect=Ax/As×100% Eq. (2)\nAp: 10 μl of high (H), medium (M), and low (L) concentration of standard solution and 300 μl of IS were added to 90 μl of blank plasma, respectively, then pre-processed by sample pretreatment method and injected to obtain the peak area A p. […]\nThe stability of analytes in plasma was assessed by analyzing peak area in three different concentration QC samples. The long-term stability was evaluated by analyzing samples that had been stored at a temperature of -80℃ for a duration of 30 days. […]\nfreeze-thaw stability was assessed by analyzing samples that had undergone three freeze-thaw cycles, transitioning from a temperature of -80℃ to 25℃. Post-preparative stability was assessed by analyzing samples that had been stored in the autosampler at 4℃ for a duration of 8 h. […]\n0.990 across the relevant concentration ranges (Supplementary Table S1). The lower limit of the quantitation (LLOQ) was determined to be 5.03 ng/ml. […]"}},
  "data": [
    {"smiles": "CNC1CC(=S)N2CC3CCCN4CCCC(C34)C2C1", "note": "[MASM, (6aS, 10S, 11aR, 11bR, 11cS)-10-methylaminododecahydro-3a, 7a-diaza-benzo (de) anthracene-8-thione]", "values": [
      {"measurement": "number of in vivo metabolites identified", "setting": "[1]", "value": 10},
      {"measurement": "primary metabolic reactions (phase I)", "setting": "[1]", "value": "oxidation, reduction, and hydroxylation"},
      {"measurement": "stability in plasma", "setting": "[2]", "value": "stable"}
    ]}
  ]
}
